In US12492184B2, “Heteroaryl compounds, preparation methods and uses thereof” (InventisBio Co., Ltd., priority 2020, dated 2025):

These molecules were tested on HEK-Blue IL23 Reporter (assay: HEK-Blue IL-23 STAT3 Reporter Assay). Conditions: HEK-Blue IL23 cells stimulated with IL-23 overnight; SEAP read with QUANTI-Blue at OD655.
Format: cell-based, human
Description: HEK-Blue IL23 cells (InvivoGen catalog #HKB-IL23) are designed for the detection of bioactive IL-23 by monitoring the activation of the STAT3 pathway. They were generated by stably introducing the genes for the human IL-23 receptor, STAT3, and the SEAP (secreted embryonic alkaline phosphatase) reporter gene into human HEK293 cell line.
Briefly, around 50,000 cells in DMEM medium supplemented with 10% heat inactivated FBS (˜180 ul) were seeded into each well and incubate for 48 hours at 37° C. with 5% CO2 in air. On day 3, one microliter of compound and 20 ul IL-23 were transferred to the assay plate respectively. The plate was left in the 37° C. incubator overnight. Two microliter of cell supernatant was transferred to a 384-well plate, and 18 ul of resuspended QUANTI-Blue solution was added to each well. SLAP levels were determined using Tecan Spark at OD655.
Cells with no IL23 added were used as Low control. Cells stimulated with IL23 were used as High control. Inhibition rate was calculated with the formula of % inhibition=100*(High control−Treated Well)/(High Control−Low control). IL-23 reporter assay inhibition IC50 was calculated with the equation of Y=Bottom+(Top-Bottom)/(1+10^((Log IC50−X)*HillSlope)).

Row | Compound | IC50
1 | [2H]C([2H])([2H])NC(=O)c1nnc(NC(=O)[C@H]2CC23CC3)cc1Nc1nccc2c1S(C)(=O)=NC2 (stereo partly drawn) [Compound 129] | 0.4 nM
2 | [2H]C([2H])([2H])NC(=O)c1nnc(NC(=O)[C@H]2CC23CC3)cc1Nc1nccc2c1S(C)(=O)=NC2 (stereo partly drawn) [Compound 130] | 59.9 nM

Same assay, conditions: Homo sapiens, HEK-Blue IL-23, HEK-Blue IL23 cells stimulated with IL-23 overnight; SEAP read with QUANTI-Blue at OD655

Row | Compound | IC50
3 | [2H]C([2H])([2H])NC(=O)c1cnc(NC(=O)[C@H]2CC23CC3)cc1Nc1ncc(Cl)cc1S(C)(=O)=O [Compound 119] | 6.2 nM
4 | [2H]C([2H])([2H])NC(=O)c1nnc(NC(=O)[C@H]2CC23CC3)cc1Nc1ncc(C(C)(C)O)cc1S(C)(=O)=O [Compound 120] | 14.7 nM
5 | [2H]C([2H])([2H])NC(=O)c1nnc(NC(=O)[C@H]2CC23CC3)cc1Nc1ncc(N2CCOC[C@H]2C)cc1S(C)(=O)=O [Compound 121] | 1.2 nM
6 | [2H]C([2H])([2H])NC(=O)c1nnc(NC(=O)[C@H]2CC23CC3)cc1Nc1ncc(N2CCOC[C@@H]2C)cc1S(C)(=O)=O [Compound 122] | 16.1 nM
7 | [2H]C([2H])([2H])NC(=O)c1nnc(NC(=O)[C@H]2CC23CC3)cc1Nc1nc(C2CC2)sc1S(C)(=O)=O [Compound 123] | 19.8 nM
8 | [2H]C([2H])([2H])NC(=O)c1nnc(NC(=O)[C@H]2CC23CC3)cc1Nc1ncc(N2CC(F)(F)C2)cc1S(C)(=O)=O [Compound 124] | 1.9 nM
9 | [2H]C([2H])([2H])NC(=O)c1nnc(NC(=O)[C@H]2CC23CC3)cc1Nc1nc(C)c(F)cc1S(C)(=O)=O [Compound 125] | 7.3 nM
10 | [2H]C([2H])([2H])NC(=O)c1nnc(NC(=O)[C@H]2CC23CC3)cc1Nc1ncc(C#N)cc1S(C)(=O)=O [Compound 126] | 17.4 nM
11 | [2H]C([2H])([2H])NC(=O)c1nnc(NC(=O)[C@H]2CC23CC3)cc1Nc1nc(C)sc1S(C)(=O)=O [Compound 127] | 6.4 nM
12 | [2H]C([2H])([2H])NC(=O)c1nnc(NC(=O)[C@H]2CC23CC3)cc1Nc1ncc(N2CC(F)C2)cc1S(C)(=O)=O [Compound 128] | 1 nM
13 | [2H]C([2H])([2H])NC(=O)c1nnc(NC(=O)C2CC2)cc1Nc1ncc(C(C)(C)O)cc1S(C)(=O)=O [Compound 131] | 9 nM
14 | [2H]C([2H])([2H])NC(=O)c1nnc(NC(=O)[C@H]2CC23CC3)cc1Nc1ncc(OC(F)(F)F)cc1S(C)(=O)=O [Compound 132] | 6.5 nM
15 | [2H]C([2H])([2H])NC(=O)c1nnc(NC(=O)[C@H]2CC23CC3)cc1Nc1ncc(N2CCC2)cc1S(C)(=O)=O [Compound 133] | 1.2 nM
